# Results reported in patent US20080070892A1, “TREATING PAIN, DIABETES, AND DISORDERS OF LIPID METABOLISM” (priority 2006, published 2008).
# Biological target: T1, human CaV3.2 (Homo sapiens, UniProt O95180)
# T1 construct: expressed in transfected cells
# Assay: IonWorks screen for hCaV3.2 (Cav3.2 Ionworks assay)
# Type: cell-based
# Details: read-out: IW hCav3 2 IC50
# From the text: Functional evaluation of voltage-gated ion channels was used to determine potency and/or single concentration efficacy of proprietary compounds. Two different methodologies were used to measure ion currents: the IonWorks HT (Molecular Devices, Sunnyvale, Calif.) a moderate throughput voltage clamp screening platform that utilizes 96-well compound plates and conventional whole cell patch clamp for lower throughput, higher fidelity determinations.
# HEK cells were transiently transfected and then selected for stable heterologous expression of different channel proteins of interest. Calcium channel cell lines expressed a resting potassium current, human Kir2.1, and the pore forming α-subunit of voltage-gated calcium channels. In the case of CaV2.1 cells the auxiliary subunit, β2a, was also expressed. Calcium channel lines that were used to generate the data in this document expressed either human CaV3.2, rat CaV3.2 or human CaV2.1. The human heart sodium channel, hNaV1.5, was stably expressed in CHO cells. These cells were licensed from the University of Pennsylvania.
# Cell lines were grown at 37° C. in humidified incubators, equilibrated with 95% air/5%0 CO2 CHO cells were grown in Ham's F-12 medium. HEK cells were grown in DMEM. All media were supplemented with 10% heat-inactivated fetal bovine serum, penicillin, streptomycin and appropriate selection antibiotics (zeocin, geneticin and/or hygromycin). Cells were passaged when 80% confluent or less.
# IonWorks Screen for hCaV3.2
# The extracellular buffer for experiments using this instrument contained the following (mM) (NaCl 125, HEPES 10, KCl 5.4, CaCl2 1.8, MgCl2 1.8, 0.2 BaCl2 pH 7.35). The IonWorks uses amphotericin to gain electrical access to the cell interior. The internal solution contained (mM concentrations): 130 K-gluconate, 20 KCl, 5 HEPES-KOH (pH 7.25), 2 CaCl2, 1 MgCl2. Amphotericin added at 5 mg in 65 ml when present (in 650 μl DMSO). All internal and external solutions for this experiment contain 1% DMSO. Cells were acutely trypsinized from a T-75 flask and resuspended in extracellular buffer at a density of 2×10^5 cells/ml.
# Experiments were performed at room temperature. Transmembrane potential was held at −100 mV for 5 seconds prior to running the voltage protocol. During this time leak currents were measured during a step to −110 mV (200 milliseconds). T-type calcium currents were activated with a 250 millisecond step to −20 mV. This depolarization step was repeated for a total of 10 pulses with an interpulse interval of 1 second. Data were excluded if the following acceptance criteria were not met: total resistance for the pre-compound scan >65 MΩ, pre-compound current >250 pA, post compound total resistance >50 MΩ.
# T-type currents were measured as the peak inward current minus the current at the end of the 250 msec step to −20 mV. After the recoding configuration was established there was a pre-compound measurement of current amplitude. Compound was added as a 3× solution containing 1% DMSO. After incubation with compound for 10 minutes currents were measured again. The current amplitude after compound addition was divided by the pre-compound current for pulse 10 to determine the fraction of current remaining after compound addition. For each compound, 8-point concentration-effect relationships were measured with ½ log serial dilutions.
# T1 sequence (O95180 whole entry): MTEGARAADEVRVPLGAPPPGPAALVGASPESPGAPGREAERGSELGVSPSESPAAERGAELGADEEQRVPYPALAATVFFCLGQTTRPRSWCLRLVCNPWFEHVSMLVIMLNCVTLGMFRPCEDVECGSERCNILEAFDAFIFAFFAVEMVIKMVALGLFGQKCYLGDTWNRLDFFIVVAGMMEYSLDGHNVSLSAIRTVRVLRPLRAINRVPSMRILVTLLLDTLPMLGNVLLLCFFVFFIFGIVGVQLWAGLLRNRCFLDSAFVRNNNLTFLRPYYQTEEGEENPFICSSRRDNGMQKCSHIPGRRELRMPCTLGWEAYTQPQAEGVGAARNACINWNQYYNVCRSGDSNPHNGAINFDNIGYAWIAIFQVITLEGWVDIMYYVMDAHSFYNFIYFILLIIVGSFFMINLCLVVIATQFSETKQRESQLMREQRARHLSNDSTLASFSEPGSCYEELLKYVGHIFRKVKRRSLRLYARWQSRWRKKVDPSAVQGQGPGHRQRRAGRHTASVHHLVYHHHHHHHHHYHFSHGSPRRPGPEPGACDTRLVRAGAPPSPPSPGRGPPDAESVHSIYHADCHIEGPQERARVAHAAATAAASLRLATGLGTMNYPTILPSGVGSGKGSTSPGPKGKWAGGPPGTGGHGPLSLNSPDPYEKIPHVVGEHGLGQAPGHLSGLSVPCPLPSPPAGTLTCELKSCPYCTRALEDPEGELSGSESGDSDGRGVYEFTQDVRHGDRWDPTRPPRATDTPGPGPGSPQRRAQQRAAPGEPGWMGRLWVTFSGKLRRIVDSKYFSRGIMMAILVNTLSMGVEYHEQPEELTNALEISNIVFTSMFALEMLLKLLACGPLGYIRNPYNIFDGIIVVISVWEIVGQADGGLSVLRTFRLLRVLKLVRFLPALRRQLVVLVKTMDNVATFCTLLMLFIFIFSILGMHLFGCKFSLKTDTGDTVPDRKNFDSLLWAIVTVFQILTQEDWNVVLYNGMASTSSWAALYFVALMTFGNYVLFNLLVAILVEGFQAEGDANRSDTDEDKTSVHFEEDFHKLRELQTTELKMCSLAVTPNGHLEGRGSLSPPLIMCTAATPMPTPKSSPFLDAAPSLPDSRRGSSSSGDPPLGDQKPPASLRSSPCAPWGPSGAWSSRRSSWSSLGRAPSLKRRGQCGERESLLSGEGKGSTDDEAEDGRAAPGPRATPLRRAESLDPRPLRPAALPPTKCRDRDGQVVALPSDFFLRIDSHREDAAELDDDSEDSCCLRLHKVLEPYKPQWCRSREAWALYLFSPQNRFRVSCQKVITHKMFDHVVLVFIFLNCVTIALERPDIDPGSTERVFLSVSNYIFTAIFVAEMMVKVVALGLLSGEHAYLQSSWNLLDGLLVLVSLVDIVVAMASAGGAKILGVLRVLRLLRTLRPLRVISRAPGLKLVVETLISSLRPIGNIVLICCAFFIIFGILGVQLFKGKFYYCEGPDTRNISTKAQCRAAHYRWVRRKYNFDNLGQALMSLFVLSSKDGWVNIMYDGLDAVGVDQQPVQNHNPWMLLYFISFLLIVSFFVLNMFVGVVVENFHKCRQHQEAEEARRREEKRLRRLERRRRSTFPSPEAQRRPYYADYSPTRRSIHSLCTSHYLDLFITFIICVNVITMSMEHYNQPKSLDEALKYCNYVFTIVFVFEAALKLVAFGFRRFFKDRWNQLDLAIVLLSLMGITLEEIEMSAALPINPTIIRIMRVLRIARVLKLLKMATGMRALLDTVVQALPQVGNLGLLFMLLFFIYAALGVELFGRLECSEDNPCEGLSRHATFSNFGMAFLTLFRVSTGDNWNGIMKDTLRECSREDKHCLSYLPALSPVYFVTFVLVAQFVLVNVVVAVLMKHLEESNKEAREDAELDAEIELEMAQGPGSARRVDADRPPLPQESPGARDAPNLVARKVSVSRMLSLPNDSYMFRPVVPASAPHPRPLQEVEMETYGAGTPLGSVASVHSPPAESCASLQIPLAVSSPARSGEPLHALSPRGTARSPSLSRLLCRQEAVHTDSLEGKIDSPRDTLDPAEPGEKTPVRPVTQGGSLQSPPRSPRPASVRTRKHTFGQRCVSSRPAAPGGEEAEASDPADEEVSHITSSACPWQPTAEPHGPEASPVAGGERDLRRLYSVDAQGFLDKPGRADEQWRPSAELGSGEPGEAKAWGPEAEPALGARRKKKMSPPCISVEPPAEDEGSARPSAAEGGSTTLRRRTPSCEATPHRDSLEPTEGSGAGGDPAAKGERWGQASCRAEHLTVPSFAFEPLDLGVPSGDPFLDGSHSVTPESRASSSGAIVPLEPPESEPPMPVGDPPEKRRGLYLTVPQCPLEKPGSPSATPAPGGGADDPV
row,Structure (SMILES),IC50 [nM]
1,COC(=O)[C@H](CC(C)C)NC(=O)N1CCC2(CC1)CN(CC(C)C)C2c1ccc(Cl)cc1 (stereo partly shown),23
2,CC[C@H](C)[C@H](NC(=O)N1CCC2(CC1)CN(CC(C)C)C2c1ccc(Cl)cc1)C(=O)OC (stereo partly shown),26
3,COC(=O)[C@@H](NC(=O)N1CCC2(CC1)CN(CC(C)C)C2c1ccc(Cl)cc1)C(C)C (stereo partly shown),32
4,COC(=O)[C@H](CC(C)C)NC(=O)N1CCC2(CC1)CN(C(C)C)C2c1ccc(Cl)cc1 (stereo partly shown),65
5,CC[C@H](C)[C@H](NC(=O)N1CCC2(CC1)CN(c1ccc(F)cc1)C2c1ccc(Cl)cc1)C(=O)OC (stereo partly shown),77
6,O=C(C1CCCCC1)N1CCC2(CC1)CN(C(=O)C1(c3ccc(Cl)cc3)CCCC1)C2c1ccccc1 (stereo not shown),376
7,"CC(C)N1CC2(CCN(C(=O)Nc3cc(F)cc(F)c3)CC2)C1c1ccc(Cl)cc1 (single isomer, unassigned)",32
8,"CC(C)N1CC2(CCN(C(=O)Nc3ccc(F)cc3)CC2)C1c1ccc(Cl)cc1 (single isomer, unassigned)",69

# Biological target: T2, human-SP9215 (GPR119) (Homo sapiens, UniProt Q8TDV5)
# T2 construct: expressed in transfected cells
# T2 sequence (Q8TDV5 1-335): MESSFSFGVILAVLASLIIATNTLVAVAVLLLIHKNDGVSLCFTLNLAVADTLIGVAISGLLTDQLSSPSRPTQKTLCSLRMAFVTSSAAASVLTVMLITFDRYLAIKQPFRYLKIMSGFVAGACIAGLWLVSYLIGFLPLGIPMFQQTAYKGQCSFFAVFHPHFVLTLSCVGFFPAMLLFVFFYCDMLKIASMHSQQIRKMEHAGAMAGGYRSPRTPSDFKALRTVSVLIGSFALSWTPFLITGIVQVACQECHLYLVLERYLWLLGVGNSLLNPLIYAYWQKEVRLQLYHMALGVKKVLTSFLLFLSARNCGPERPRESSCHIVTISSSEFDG
# Assay: GPR119 screening assay (LANCE cAMP)
# Type: cell-based
# Details: HEK 293 cells stably transfected with human GPR119, read-out: GPR 119 cAMP IC50
# Description: • +100 mg BSA (MP Biomedicals faction V, #103703)=0.1% • +500 ul 1M HEPES (Cellgro #25-060-CI)=5 mM • +75 ul RO-20 (Sigma B8279; 20 mM stock in DMSO stored in aliquots at −20 C)=15 uM • (made fresh daily) B84 (N-[4-(methylsulfonyl)phenyl]-5-nitro-6-[4-(phenylthio)-1-piperidinyl]-4-pyrimidinamine, see WO 2004/065380). A 10 mM stock solution of the test compound in DMSO was prepared, aliquoted and stored at −20 C. For Totals—Dilute 1:33.3 in DMSO then 1:50 in Stimulation Buffer=6 uM in 2% DMSO (=3 uM B84 and 1% DMSO final). For Dose Response Curve—3 ul stock+7 ul DMSO+490 ul Stim Buffer=60 uM in 2% DMSO (=30 uM B84 and 1% DMSO final). (made fresh daily). Cell Line: Human clone 3. HEK 293 cells stable transfected with human-SP9215 (GPR119)/pcDNA3.1 and also stable for pCRELuc, Stratagene. Cells are maintained in DMEM containing 10% FBS (invitrogen #02-4006Dk, lot #1272302, heat inactivated), 1×MEM, 1× Pen/Strep, 0.1 mg/ml Hygromycin 6, and […] G418. Cells are split 1:8 twice per week. cAMP Kit: LANCE™ cAMP 384 kit, Perkin Elmer #AD0263 Compound Dilutions: • Add DMSO to vials containing compounds to yield a 1 mg/ml solution. • 1. Dilute compounds to 60 μM in Stimulation buffer. Make ½ log dilutions into Stimulation buffer containing 2% DMSO using the epMotion robot. 10 point dose response curve 1 nM to 30 uM. • 2. Compounds are run in quadruplicate, 2 separate dilutions for each, sets 1 and 1a. Assay Procedure: • 1. The afternoon before the assay, replace the media in the flask of Human clone 3 cells with Optimem. (Gibco #11058-021) NOTE: cells should be in culture 6-8 days. • 2. Next morning, pipette the cells gently off the flask using HBSS (RT). • 3. Pellet the cells (1300 rpm, 7 min, RT) and resuspend in Stimulation Buffer at […] (=5-8,000 cell/6 ul). Add 1:100 dilution of Alexa Fluor 647-anti cAMP antibody (provided in the kit) directly to the cell suspension. • 4. Into white 384-well plates (Matrix) add 6 ul of 2× B84, cmpds or stim buffer for nsb. They all contain 2% DMSO (=1% DMSO final). • 5. Add 6 ul of the cell suspension to the wells. Incubate 30 minutes RT. • 6. For the std curve add 6 ul cAMP std solution diluted in Stim Buffer+2% DMSO according to kit directions (1000-3 nM). Add 6 ul of 1:100 anti-cAMP dilution in Stim Buffer to std wells. • 7. Make Detection Mix according to kit instructions and incubate 15 min RT. • 8. Add 12 ul Detection Mix to all the wells. Mix gently by tapping and incubate 2-3 hrs RT. • 9. Read on the Envision under the protocol “Lance/Delphia cAMP” • 10. Values (nM) for each sample are determined by extrapolation from the std curve. % Control, Fold and EC50 (Control=3 uM B84) are determined for each compound, averaging sets 1 and 1a. Results
row,Structure (SMILES),IC50 [nM]
1,O=C(c1ccc2c(c1)OCCCO2)N1CCC2(CC1)CN(c1ccc(F)cc1)C2c1ccc(Cl)cc1 (stereo not shown),1640
2,CC(C)CN1CC2(CCN(C(=O)c3ccc4c(c3)OCCCO4)CC2)C1c1ccccc1 (stereo not shown),1920
3,CC(C)CN1CC2(CCN(C(=O)c3ccc4c(c3)OCCCO4)CC2)C1c1ccc(Cl)cc1 (stereo not shown),2620
4,O=C(c1ccc2c(c1)OCCCO2)N1CCC2(CC1)CN(Cc1ccccc1Cl)C2c1ccc(Cl)cc1 (stereo not shown),2770
5,O=C(c1ccc2[nH]cnc2c1)N1CCC2(CC1)CN(Cc1ccccc1Cl)C2c1ccccc1 (stereo not shown),2980
